Reference: ChEMBL document CHEMBL3885861, “Open TG-GATES”

Organism: Rattus norvegicus
Assay: Open TG-GATES - Regimen: Single
Format: toxicity, organism-based, Sprague-Dawley
Set-up: regimen Single, gender Male, age 6 weeks
Conditions: in vivo, po, 0 mg/kg, route gavage, dose level Control; for APTT / Bas / Eos / Fbg / Hb / Ht / Lym / MCH / MCHC / MCV / Mono / Neu / PT / Plat / RBC / Ret / WBC: tissue Blood; for KIDNEY_L / KIDNEY_R / KIDNEY_TOTAL: tissue Kidney; for LIVER: tissue Liver; for A/G / ALP / ALT / AST / BUN / CRE / Ca / Cl / DBIL / GLC / IP / K / LDH / Na / PL / RALB / TBIL / TC / TG / TP / gamma-GTP: tissue Plasma

`Cc1cccc(Nc2ccccc2C(=O)O)c1C` [MEFENAMIC ACID] was tested, and the TERMINAL_BW (3 h) was 216.3 g, the APTT (3 h) was 18.2 s and the Bas (3 h) was 0%. For the same compound, the Eos (3 h) was 1%, the Fbg (3 h) was 217.8 mg/dL and the Hb (3 h) was 13.2 g/dL. For the same compound, the Ht (3 h) was 37.1%, the Lym (3 h) was 77.8% and the MCH (3 h) was 21.9 pg. For the same compound, the MCHC (3 h) was 35.5%, the MCV (3 h) was 61.9 fL and the Mono (3 h) was 2.4%. For the same compound, the Neu (3 h) was 16.4%, the PT (3 h) was 12.4 s and the Plat (3 h) was 117.6 x10_4/uL. It also gave an RBC (3 h) of 600.2 x10_4/ul, a Ret (3 h) of 7.4% and a WBC (3 h) of 74.9 x10_2/uL. For the same compound, the KIDNEY_L (3 h) was 1 g, the KIDNEY_R (3 h) was 1 g and the KIDNEY_TOTAL (3 h) was 1.9 g. For the same compound, the LIVER (3 h) was 9.7 g, the A/G (3 h) was 1.7 and the ALP (3 h) was 1061 IU/L. The ALT (3 h) was 35 IU/L, the AST (3 h) was 67 IU/L and the BUN (3 h) was 10.8 mg/dL. For the same compound, the CRE (3 h) was 0.4 mg/dL, the Ca (3 h) was 10.9 mg/dL and the Cl (3 h) was 103 meq/L. For the same compound, the DBIL (3 h) was 0.078 mg/dL, the GLC (3 h) was 190.4 mg/dL and the IP (3 h) was 9 mg/dL. The K (3 h) was 4.1 meq/L, the LDH (3 h) was 213 IU/L and the Na (3 h) was 140.8 meq/L. For the same compound, the PL (3 h) was 145.8 mg/dL, the RALB (3 h) was 3.5 g/dL and the TBIL (3 h) was 0.1 mg/dL. It also gave a TC (3 h) of 80 mg/dL, a TG (3 h) of 49 mg/dL and a TP (3 h) of 5.6 g/dL. For the same compound, the gamma-GTP (3 h) was 1.2 IU/L, the TERMINAL_BW (6 h) was 214.5 g and the APTT (6 h) was 18.6 s. It also gave a Bas (6 h) of 0%, an Eos (6 h) of 1% and a Fbg (6 h) of 219.4 mg/dL. For the same compound, the Hb (6 h) was 13.2 g/dL, the Ht (6 h) was 37.2% and the Lym (6 h) was 80.6%. For the same compound, the MCH (6 h) was 22 pg, the MCHC (6 h) was 35.5% and the MCV (6 h) was 61.9 fL. The Mono (6 h) was 2.4%, the Neu (6 h) was 15% and the PT (6 h) was 13 s. It also gave a Plat (6 h) of 107.7 x10_4/uL, an RBC (6 h) of 601.8 x10_4/ul and a Ret (6 h) of 7.8%. It also gave a WBC (6 h) of 87.4 x10_2/uL, a KIDNEY_L (6 h) of 1 g and a KIDNEY_R (6 h) of 1 g. The KIDNEY_TOTAL (6 h) was 2 g, the LIVER (6 h) was 8.8 g and the A/G (6 h) was 1.6. The ALP (6 h) was 898.6 IU/L, the ALT (6 h) was 36.8 IU/L and the AST (6 h) was 65.4 IU/L. It also gave a BUN (6 h) of 8.6 mg/dL, a CRE (6 h) of 0.3 mg/dL and a Ca (6 h) of 10.3 mg/dL. For the same compound, the Cl (6 h) was 102.8 meq/L, the DBIL (6 h) was 0.062 mg/dL and the GLC (6 h) was 183.4 mg/dL. For the same compound, the IP (6 h) was 8.9 mg/dL, the K (6 h) was 4.2 meq/L and the LDH (6 h) was 172 IU/L. It also gave a Na (6 h) of 139.6 meq/L, a PL (6 h) of 134.6 mg/dL and an RALB (6 h) of 3.3 g/dL. For the same compound, the TBIL (6 h) was 0.1 mg/dL, the TC (6 h) was 79.4 mg/dL and the TG (6 h) was 39.8 mg/dL. It also gave a TP (6 h) of 5.4 g/dL, a gamma-GTP (6 h) of 1 IU/L and a TERMINAL_BW (9 h) of 214.7 g. The APTT (9 h) was 18.8 s, the Bas (9 h) was 0% and the Eos (9 h) was 1%. It also gave a Fbg (9 h) of 228.8 mg/dL, a Hb (9 h) of 13.6 g/dL and a Ht (9 h) of 38.3%. For the same compound, the Lym (9 h) was 78.6%, the MCH (9 h) was 22.2 pg and the MCHC (9 h) was 35.6%. The MCV (9 h) was 62.6 fL, the Mono (9 h) was 2.2% and the Neu (9 h) was 17.2%. For the same compound, the PT (9 h) was 12.8 s, the Plat (9 h) was 106.8 x10_4/uL and the RBC (9 h) was 613 x10_4/ul. It also gave a Ret (9 h) of 7.1%, a WBC (9 h) of 75.3 x10_2/uL and a KIDNEY_L (9 h) of 1 g. It also gave a KIDNEY_R (9 h) of 1 g, a KIDNEY_TOTAL (9 h) of 2 g and an LIVER (9 h) of 8.7 g. For the same compound, the A/G (9 h) was 1.7, the ALP (9 h) was 891.2 IU/L and the ALT (9 h) was 32.6 IU/L. It also gave an AST (9 h) of 64.2 IU/L, a BUN (9 h) of 10.6 mg/dL and a CRE (9 h) of 0.3 mg/dL. It also gave a Ca (9 h) of 10.4 mg/dL, a Cl (9 h) of 102.8 meq/L and a DBIL (9 h) of 0.074 mg/dL. It also gave a GLC (9 h) of 202.6 mg/dL, an IP (9 h) of 8.9 mg/dL and a K (9 h) of 3.8 meq/L. For the same compound, the LDH (9 h) was 187.4 IU/L, the Na (9 h) was 141 meq/L and the PL (9 h) was 136.4 mg/dL. For the same compound, the RALB (9 h) was 3.5 g/dL, the TBIL (9 h) was 0.1 mg/dL and the TC (9 h) was 75.2 mg/dL. It also gave a TG (9 h) of 55.4 mg/dL, a TP (9 h) of 5.6 g/dL and a gamma-GTP (9 h) of 1 IU/L. The TERMINAL_BW (24 h) was 229.4 g, the APTT (24 h) was 18 s and the Bas (24 h) was 0%. It also gave an Eos (24 h) of 1%, a Fbg (24 h) of 214.8 mg/dL and a Hb (24 h) of 13.4 g/dL. For the same compound, the Ht (24 h) was 38.5%, the Lym (24 h) was 79.2% and the MCH (24 h) was 22.4 pg. It also gave an MCHC (24 h) of 34.8%, an MCV (24 h) of 64.2 fL and a Mono (24 h) of 2%. It also gave a Neu (24 h) of 16.4%, a PT (24 h) of 12 s and a Plat (24 h) of 116.5 x10_4/uL. It also gave an RBC (24 h) of 599.6 x10_4/ul, a Ret (24 h) of 6.7% and a WBC (24 h) of 80 x10_2/uL. For the same compound, the KIDNEY_L (24 h) was 1 g, the KIDNEY_R (24 h) was 1 g and the KIDNEY_TOTAL (24 h) was 2.1 g. It also gave an LIVER (24 h) of 11.1 g, an A/G (24 h) of 1.5 and an ALP (24 h) of 943.6 IU/L. The ALT (24 h) was 39 IU/L, the AST (24 h) was 66 IU/L and the BUN (24 h) was 13.6 mg/dL. For the same compound, the CRE (24 h) was 0.4 mg/dL, the Ca (24 h) was 10.9 mg/dL and the Cl (24 h) was 102.8 meq/L. It also gave a DBIL (24 h) of 0.1 mg/dL, a GLC (24 h) of 193.2 mg/dL and an IP (24 h) of 7.9 mg/dL. The K (24 h) was 4.1 meq/L, the LDH (24 h) was 223.6 IU/L and the Na (24 h) was 140.2 meq/L. For the same compound, the PL (24 h) was 147.8 mg/dL, the RALB (24 h) was 3.4 g/dL and the TBIL (24 h) was 0.2 mg/dL. The TC (24 h) was 74.6 mg/dL, the TG (24 h) was 120.4 mg/dL and the TP (24 h) was 5.7 g/dL. For the same compound, the gamma-GTP (24 h) was 1.4 IU/L.
